Measured values published in ChEMBL document CHEMBL5120803, “Design, synthesis and activity study of a novel PI3K degradation by hijacking VHL E3 ubiquitin ligase” (2022).
Active and inactive are the calls of the source. The calls are words filed in the database; no cut-off is given here.

Key:
HeLa = assay: Antiproliferative activity against human HeLa cells assessed as inhibition of cell proliferation at 10 uM incubated for 72 hrs by CCK8 assay relative to control; type: functional; parameters: scale not given: the % may be the effect or the level left
[1] = target: Phosphatidylinositol 4,5-bisphosphate 3-kinase catalytic subunit alpha isoform (Homo sapiens) (UniProt P42336); assay: Inhibition on PI3Kalpha (unknown origin) at 1 nM by kinase-glo plus luminescent assay relative to control
Phosphatidylinositol 4,5-bisphosphate 3-kinase catalytic subunit alpha isoform (Homo sapiens), sequence (P42336 whole entry, canonical isoform): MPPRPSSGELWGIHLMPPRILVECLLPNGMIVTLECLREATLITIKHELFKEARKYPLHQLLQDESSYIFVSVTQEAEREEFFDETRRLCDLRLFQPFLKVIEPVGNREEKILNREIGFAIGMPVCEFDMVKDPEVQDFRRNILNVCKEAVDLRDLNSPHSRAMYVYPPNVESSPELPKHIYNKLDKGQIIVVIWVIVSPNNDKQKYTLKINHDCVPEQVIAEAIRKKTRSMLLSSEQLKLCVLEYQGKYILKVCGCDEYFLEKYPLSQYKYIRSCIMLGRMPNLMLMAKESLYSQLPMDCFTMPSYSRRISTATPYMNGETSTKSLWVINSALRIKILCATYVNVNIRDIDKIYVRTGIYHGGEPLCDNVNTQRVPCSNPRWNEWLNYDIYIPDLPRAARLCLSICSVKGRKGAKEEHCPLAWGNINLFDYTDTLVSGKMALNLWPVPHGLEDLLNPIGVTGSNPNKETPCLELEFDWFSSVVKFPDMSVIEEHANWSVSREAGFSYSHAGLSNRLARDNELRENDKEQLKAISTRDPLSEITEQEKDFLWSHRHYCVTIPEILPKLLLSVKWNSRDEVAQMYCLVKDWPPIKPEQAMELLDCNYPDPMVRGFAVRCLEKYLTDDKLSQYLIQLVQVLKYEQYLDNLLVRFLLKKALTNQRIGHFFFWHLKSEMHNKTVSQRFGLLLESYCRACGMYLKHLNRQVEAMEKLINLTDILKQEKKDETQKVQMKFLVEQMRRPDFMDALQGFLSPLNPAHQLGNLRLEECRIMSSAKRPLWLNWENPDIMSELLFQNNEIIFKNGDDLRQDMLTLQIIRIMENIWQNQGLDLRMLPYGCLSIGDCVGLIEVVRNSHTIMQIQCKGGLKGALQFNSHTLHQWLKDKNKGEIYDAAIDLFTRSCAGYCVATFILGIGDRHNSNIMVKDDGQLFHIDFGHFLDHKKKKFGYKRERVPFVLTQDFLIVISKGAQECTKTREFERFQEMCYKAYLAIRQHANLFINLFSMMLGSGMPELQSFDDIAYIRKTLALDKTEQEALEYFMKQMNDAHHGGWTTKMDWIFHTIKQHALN

HT-29 = assay: Antiproliferative activity against human HT-29 cells assessed as inhibition of cell proliferation at 10 uM incubated for 72 hrs by CCK8 assay relative to control; type: functional; parameters: scale not given: the % may be the effect or the level left
HCT-116 = assay: Antiproliferative activity against human HCT-116 cells assessed as inhibition of cell proliferation at 10 uM incubated for 72 hrs by CCK8 assay relative to control; type: functional; parameters: scale not given: the % may be the effect or the level left
[2] = target: T1, von Hippel-Lindau disease tumor suppressor/Phosphatidylinositol 4,5-bisphosphate 3-kinase catalytic subunit alpha isoform (Homo sapiens) (UniProt P42336+P40337); assay: PROTAC activity at VHL/PI3K in human HeLa cells assessed as induction of PI3Kalpha degradation at 10 uM incubated for 24 hrs by Western blotting analysis; type: cell-based
T1 sequence (P40337 whole entry, looked up, canonical isoform): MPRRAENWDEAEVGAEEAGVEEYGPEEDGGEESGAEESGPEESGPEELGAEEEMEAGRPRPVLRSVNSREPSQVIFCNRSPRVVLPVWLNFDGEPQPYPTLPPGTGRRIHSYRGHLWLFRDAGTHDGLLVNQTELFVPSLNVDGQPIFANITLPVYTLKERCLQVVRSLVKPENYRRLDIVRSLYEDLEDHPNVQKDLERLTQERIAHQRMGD
T1 sequence (P42336 whole entry, looked up, canonical isoform): as the sequence (P42336 whole entry, canonical isoform) above

[3] = target: T1, von Hippel-Lindau disease tumor suppressor/Phosphatidylinositol 4,5-bisphosphate 3-kinase catalytic subunit alpha isoform (Homo sapiens); assay: PROTAC activity at VHL/PI3K in human HeLa cells assessed as induction of PI3Kalpha degradation at 3 uM incubated for 24 hrs by Western blotting analysis; type: cell-based
[4] = target: T1, von Hippel-Lindau disease tumor suppressor/Phosphatidylinositol 4,5-bisphosphate 3-kinase catalytic subunit alpha isoform (Homo sapiens); assay: PROTAC activity at VHL/PI3K in human HeLa cells assessed as redcution in AKT phosphorylation at 3 uM incubated for 24 hrs by Western blotting analysis; type: cell-based
[5] = target: T1, von Hippel-Lindau disease tumor suppressor/Phosphatidylinositol 4,5-bisphosphate 3-kinase catalytic subunit alpha isoform (Homo sapiens); assay: PROTAC activity at VHL/PI3K in human HeLa cells assessed as inhibition of AKT phosphorylation by Western blotting analysis; type: cell-based; conditions: time 2-12 hrs, TDE = time-dependent effect
[6] = target: T1, von Hippel-Lindau disease tumor suppressor/Phosphatidylinositol 4,5-bisphosphate 3-kinase catalytic subunit alpha isoform (Homo sapiens); assay: PROTAC activity at VHL/PI3K in human HeLa cells assessed as induction of PI3Kalpha degradation at 1 to 10 uM incubated for 24 hrs by Western blotting analysis; type: cell-based; conditions: dose 1-10 µM
[7] = target: T1, von Hippel-Lindau disease tumor suppressor/Phosphatidylinositol 4,5-bisphosphate 3-kinase catalytic subunit alpha isoform (Homo sapiens); assay: PROTAC activity at VHL/PI3K in human HeLa cells assessed as reduction in AKT phosphorylation at 10 uM incubated for 24 hrs by Western blotting analysis; type: cell-based
[8] = target: T1, von Hippel-Lindau disease tumor suppressor/Phosphatidylinositol 4,5-bisphosphate 3-kinase catalytic subunit alpha isoform (Homo sapiens); assay: PROTAC activity at VHL/PI3K in human HeLa cells assessed as induction of PI3Kalpha degradation by Western blotting analysis; type: cell-based; conditions: time 2-12 hrs, TDE = time-dependent effect

SMILES	inhibition [1] [%]	Activity [2]	Activity [3]	Activity [4]	Activity [5]	Activity [6]	Activity [7]	Activity [8]	Activity (HeLa) [%]	Activity (HT-29) [%]	Activity (HCT-116) [%]
COc1ncc(-c2ccc3ncc(-c4nnc(-c5ccccc5C(=O)N[C@H](C(=O)N5C[C@@H](O)C[C@@H]5C(=O)NCc5ccc(-c6scnc6C)cc5)C(C)(C)C)o4)n3c2)cc1NS(=O)(=O)c1ccc(F)cc1F	33.6								30.38		95.86
COc1ncc(-c2ccc3ncc(-c4nnc(-c5ccccc5C(=O)NCCCCC(=O)N[C@H](C(=O)N5C[C@@H](O)C[C@@H]5C(=O)NCc5ccc(-c6scnc6C)cc5)C(C)(C)C)o4)n3c2)cc1NS(=O)(=O)c1ccc(F)cc1F	22.2								32.2	82.88	23.94
COc1ncc(-c2ccc3ncc(-c4nnc(-c5ccccc5C(=O)O)o4)n3c2)cc1NS(=O)(=O)c1ccc(F)cc1F	67.1								1.62		8.23
COc1ncc(-c2ccc3ncc(-c4nnc(-c5ccccc5C(=O)NCCCCCCC(=O)N[C@H](C(=O)N5C[C@@H](O)C[C@@H]5C(=O)NCc5ccc(-c6scnc6C)cc5)C(C)(C)C)o4)n3c2)cc1NS(=O)(=O)c1ccc(F)cc1F	49.8	Active	Active	Active	Tde	Active	Active	Tde	96.33	72.18	50.3
COC(=O)c1ccccc1-c1nnc(-c2cnc3ccc(-c4cnc(OC)c(NS(=O)(=O)c5ccc(F)cc5F)c4)cn23)o1	70.2								99.37	80.36	91.65
COc1ncc(-c2ccc3ncc(-c4nnc(-c5ccccc5C(=O)NCCOCCOCCOCCOCCOCC(=O)N[C@H](C(=O)N5C[C@@H](O)C[C@@H]5C(=O)NCc5ccc(-c6scnc6C)cc5)C(C)(C)C)o4)n3c2)cc1NS(=O)(=O)c1ccc(F)cc1F	51.9								85.58	61.35	37.32

Second part, led by results:

inhibition [1] [%]	Activity [2]	Activity [3]	Activity [4]	Activity [5]	Activity [6]	Activity [7]	Activity [8]	SMILES	Activity (HeLa) [%]	Activity (HT-29) [%]	Activity (HCT-116) [%]
65.2								COc1ncc(-c2ccc3ncc(-c4nnc(-c5ccccc5C(=O)NCCCCCCCC(=O)N[C@H](C(=O)N5CC(O)CC5C(=O)NCc5ccc(-c6scnc6C)cc5)C(C)(C)C)o4)n3c2)cc1NS(=O)(=O)c1ccc(F)cc1F (single isomer, unassigned)	87.89	74.22	70.03
59.1								COc1ncc(-c2ccc3ncc(-c4nnc(-c5ccccc5C(=O)NCCOCCOCCOCC(=O)N[C@H](C(=O)N5C[C@@H](O)C[C@@H]5C(=O)NCc5ccc(-c6scnc6C)cc5)C(C)(C)C)o4)n3c2)cc1NS(=O)(=O)c1ccc(F)cc1F	90.1	22.69	48.88
31.7								COc1ncc(-c2ccc3ncc(-c4nnc(-c5ccccc5C(=O)NCCOCCOCC(=O)N[C@H](C(=O)N5C[C@@H](O)C[C@@H]5C(=O)NCc5ccc(-c6scnc6C)cc5)C(C)(C)C)o4)n3c2)cc1NS(=O)(=O)c1ccc(F)cc1F	89.21	57.14	33.84
48.6								COc1ncc(-c2ccc3ncc(-c4nnc(-c5ccccc5C(=O)NCCOCCOCCOCCOCCOCCOCC(=O)N[C@H](C(=O)N5C[C@@H](O)C[C@@H]5C(=O)NCc5ccc(-c6scnc6C)cc5)C(C)(C)C)o4)n3c2)cc1NS(=O)(=O)c1ccc(F)cc1F	91.27		56.24
60	Active	Active	Active		Active	Active		COc1ncc(-c2ccc3ncc(-c4nnc(-c5ccccc5C(=O)NCCCCCC(=O)N[C@H](C(=O)N5C[C@@H](O)C[C@@H]5C(=O)NCc5ccc(-c6scnc6C)cc5)C(C)(C)C)o4)n3c2)cc1NS(=O)(=O)c1ccc(F)cc1F	94.03	89.26	41.16
57.5								COc1ncc(-c2ccc3ncc(-c4nnc(-c5ccccc5C(=O)NCCOCCOCCOCCOCC(=O)N[C@H](C(=O)N5CC(O)CC5C(=O)NCc5ccc(-c6scnc6C)cc5)C(C)(C)C)o4)n3c2)cc1NS(=O)(=O)c1ccc(F)cc1F (single isomer, unassigned)	89.6	50.35	57.87
40.1								COc1ncc(-c2ccc3ncc(-c4nnc(-c5ccccc5C(=O)NCCOCC(=O)N[C@H](C(=O)N5C[C@@H](O)C[C@@H]5C(=O)NCc5ccc(-c6scnc6C)cc5)C(C)(C)C)o4)n3c2)cc1NS(=O)(=O)c1ccc(F)cc1F	23.41	51.09	25.32
